ChEMBL document CHEMBL3638739, “Medical composition for treatment or prophylaxis of glaucoma” (2014)
pKi: −log10 of the molar value.

target: Prostaglandin E2 receptor EP2 subtype (Homo sapiens, UniProt P43116); assay: Binding Assay: Measurement of EP2 receptor binding affinity was carried out according to the method of Abramovitz et al. (Biochimica et Biophysica Acta, 1483, 285 (2000)). […] The membrane fraction was recovered on glass fiber filter paper (GF/B, available from Whatman PLC) using a cell harvester (M30R, available from Brandel Inc.), and after washing with a buffer solution (10 mM MES-KOH (pH 6.0), 10 mM MgCl2), radioactivity was measured with a liquid scintillation analyzer (2000CA, available from Packard).; format: cell membranes; conditions: hek293
Sequence (P43116 whole entry): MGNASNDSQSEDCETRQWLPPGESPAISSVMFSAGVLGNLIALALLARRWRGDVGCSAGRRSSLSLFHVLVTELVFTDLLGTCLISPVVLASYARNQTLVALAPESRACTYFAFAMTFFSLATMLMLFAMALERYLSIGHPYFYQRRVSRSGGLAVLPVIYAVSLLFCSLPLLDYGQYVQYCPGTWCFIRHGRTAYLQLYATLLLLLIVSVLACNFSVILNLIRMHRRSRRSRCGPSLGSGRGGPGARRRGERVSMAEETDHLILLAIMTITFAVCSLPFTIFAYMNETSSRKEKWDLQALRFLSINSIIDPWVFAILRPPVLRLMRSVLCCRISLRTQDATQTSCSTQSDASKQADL

SMILES	pKi
O=C(O)c1[nH]c(-c2ccoc2)cc1-c1ccc(O)cc1	8.55
COC(=O)c1ccc(CNC(=O)c2[nH]c(-c3cccs3)cc2-c2ccc(F)cc2)nc1	8.42
O=C(NO)c1ccc(CNC(=O)c2[nH]c(-c3ccoc3)cc2-c2ccc(F)cc2)cc1	8.96
O=C(NO)c1ccc(CNC(=O)c2[nH]c(-c3cccs3)cc2-c2ccc(O)cc2)cc1	7.89
O=C(NO)c1ccc(CNC(=O)c2[nH]c(-c3ccc(O)cc3)cc2-c2ccoc2)cc1	8.03
COc1ccc(-c2cc(-c3ccccc3)[nH]c2C(=O)Nc2ccc(C(=O)NO)o2)cc1	8.51
O=C(NO)c1ccc(CNC(=O)c2[nH]c(-c3ccccc3)cc2-c2ccc(F)cc2)o1	8.82
